Laboratory results taken from US12325709B2, “Cannabinoid derivatives” (CANOPY GROWTH CORPORATION, priority 2019, dated 2025).
pIC50: −log10 of the molar value.

Columns and labels:
[1] = target: T1, human CB2 receptor (Homo sapiens, UniProt P34972); assay: CB2 radioligand competitive binding assay ([3H]CP 55,940 displacement); conditions: for Selectivity CB2: fold difference in binding between CB1 and CB2, shown in column of receptor with higher affinity, 1.00 in both = about the same affinity
T1 construct: host or cells: CHO-K1 (Chinese hamster ovary) cells, stably transfected; membranes prepared in house
T1 sequence (P34972 whole entry): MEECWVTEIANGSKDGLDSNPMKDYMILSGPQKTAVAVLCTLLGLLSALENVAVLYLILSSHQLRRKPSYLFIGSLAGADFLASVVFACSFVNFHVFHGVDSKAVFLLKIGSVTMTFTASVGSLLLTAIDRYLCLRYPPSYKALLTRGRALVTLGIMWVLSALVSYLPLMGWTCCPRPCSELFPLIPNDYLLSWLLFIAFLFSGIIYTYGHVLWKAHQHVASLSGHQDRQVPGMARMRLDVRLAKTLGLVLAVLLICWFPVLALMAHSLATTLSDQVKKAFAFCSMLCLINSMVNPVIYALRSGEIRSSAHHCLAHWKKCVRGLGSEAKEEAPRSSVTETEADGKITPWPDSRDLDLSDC
Experimental: Compounds of the present disclosure were tested for CB1 receptor binding affinity and for CB2 receptor binding affinity. As used herein, “binding affinity” is represented by the IC50 value, which was experimentally determined as described herein. The lower the IC50 value the higher the binding affinity.
The membranes were prepared from CHO-K1 (Chinese hamster ovary) cells stably transfected with the human CB2 receptor (Cat. #ES-111-C; Perkin Elmer, Boston, MA). The cells were grown adherently and maintained in Ham's F12 medium containing 10% fetal bovine serum (FBS), penicillin, streptomycin and geneticin (G418) at 37° C. in a humid atmosphere of 5% CO2 following the manufacturer's instructions.
For membrane preparation the cells were washed with PBS and scraped off the plates in cold homogenization buffer (25 mM HEPES (pH 7.4), 2 mM EDTA) containing protease inhibitor cocktail (Sigma Cat. #P8340). The cell suspension was homogenized with a Pro-PK-01200D Polytron Homogenizer (Pro Scientific) and then centrifuged for 30 min at 120,000×g. The supernatant was discarded and the pellet was re-suspended in the homogenization buffer and stored at −80° C. until the time of use.
In this experiment, 3H radiolabeled CP 55,940, i.e. [3H]CP 55,940 (Perkin Elmer, Boston, MA), was used as a radioligand for the CB2 receptor to determine the binding affinity of compounds for the CB2 receptor (Scheme 3; above).
The competition binding experiments (single dose and dose-response) were performed by incubating 0.6 nM of [3H]CP55,940 (specific activity 101 Ci/mmol, Perkin Elmer) and different concentrations of compounds disclosed herein with membranes prepared as above from CHO-K1 cells expressing human CB2 receptor (1 μg of protein/well), 50 mM Tris-HCl (pH 7.4), 5 mM MgCl2, 1 mM CaCl2, and 2 mg/mL BSA.
For the dose-response experiments the test compounds were sequentially diluted to provide the desired concentration range for the IC50 determination. In each case the compounds were pre-incubated with the membrane for 20 min, before adding the radioligand.
After incubation with the radioligand for 60 min at 37° C., the incubation was terminated by rapid filtration of assay mixture through MultiScreen®HTS^+ 96-well filter plates (Millipore, Cat. #MSFCNXB), pre-soaked for 60 min with 50 mM Tris-HCl (pH 7.4) containing 0.33% polyethylenimine (PEI). The nonspecific binding (NSB) was determined in the presence of 10 μM unlabelled CP55,940. After drying the filter plate at 50° C. for at least 60 min, the filter-bound radioactivity was determined by scintillation spectrometry using the 1450 MicroBeta Plate Counter (Perkin Elmer, Boston, MA).

[2] = target: T2, human CB1 receptor (Homo sapiens, UniProt P21554); assay: CB1 radioligand competitive binding assay ([3H]CP 55,940 displacement)
T2 construct: host or cells: CHO-K1 (Chinese hamster ovary) cells, stably transfected; membranes prepared in house
T2 sequence (P21554 whole entry): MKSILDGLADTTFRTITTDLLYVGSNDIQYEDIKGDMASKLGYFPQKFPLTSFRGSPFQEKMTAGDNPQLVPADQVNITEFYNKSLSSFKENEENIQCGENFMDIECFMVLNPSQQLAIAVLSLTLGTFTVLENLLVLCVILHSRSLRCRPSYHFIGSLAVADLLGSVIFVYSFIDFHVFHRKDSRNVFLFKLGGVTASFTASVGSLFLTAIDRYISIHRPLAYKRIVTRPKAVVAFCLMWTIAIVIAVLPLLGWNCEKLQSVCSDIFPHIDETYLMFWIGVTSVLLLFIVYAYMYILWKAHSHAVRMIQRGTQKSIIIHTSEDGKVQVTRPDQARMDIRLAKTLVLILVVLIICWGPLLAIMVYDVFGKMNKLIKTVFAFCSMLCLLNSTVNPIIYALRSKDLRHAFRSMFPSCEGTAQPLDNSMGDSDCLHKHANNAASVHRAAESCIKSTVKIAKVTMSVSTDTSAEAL

| Compound | pIC50 [1] | Selectivity CB2 [1] | pIC50 [2] |
| --- | --- | --- | --- |
| C=C(C)[C@@H]1CCC(C)=C[C@H]1c1c(O)cc(CCC)c(C(=O)NC)c1O [Compound 96d, 2,6-dihydroxy-N,5′-dimethyl-2′-(prop-1-en-2-yl)-4-propyl-1′,2′,3′,4′-tetrahydro-[1,1′-biphenyl]-3-carboxamide] | < 5.30 | 2.59 fold | < 5.30 |
| CCCc1c(CN(C)C(=O)OC)c(O)c(C2C=C(C)CCC2)c(O)c1CN(C)C(=O)OC (stereo not drawn) [59′c, dimethyl ((2,6-dihydroxy-5′-methyl-4-propyl-1′,2′,3′,4′-tetrahydro-[1,1′-biphenyl]-3,5-diyl)bis(methylene))bis(methylcarbamate)] | 6.00 to 7.00 | 3.25 fold | 5.30 to 6.00 |
